{
  "source": "patent US20240217978A1",
  "about": "(CHONG KUN DANG PHARMACEUTICAL CORP., priority 2021, published 2024)",
  "data": [
    {"biological_target": "human adenosine A2a receptor (Homo sapiens (Human), UniProt P29274)", "sequence (P29274 whole entry)": "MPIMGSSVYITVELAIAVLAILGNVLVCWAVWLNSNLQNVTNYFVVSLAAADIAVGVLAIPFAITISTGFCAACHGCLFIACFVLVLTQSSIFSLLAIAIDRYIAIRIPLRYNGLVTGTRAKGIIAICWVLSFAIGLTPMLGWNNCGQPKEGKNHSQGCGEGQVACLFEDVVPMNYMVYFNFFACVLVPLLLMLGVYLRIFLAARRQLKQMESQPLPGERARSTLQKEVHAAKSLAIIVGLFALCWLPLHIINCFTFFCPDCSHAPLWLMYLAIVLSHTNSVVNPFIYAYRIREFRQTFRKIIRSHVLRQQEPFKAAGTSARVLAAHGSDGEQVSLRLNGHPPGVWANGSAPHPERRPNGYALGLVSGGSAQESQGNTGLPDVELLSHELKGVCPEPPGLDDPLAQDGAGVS", "assay": "A2a receptor binding affinity, [3H]-NECA radioligand binding test", "settings": "[3H]-NECA 37 nM; membrane from HEK-293 cells transfected with human adenosine A2a receptor", "in_short": "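IC50 values (μM) come from displacement of [3H]-NECA, used at 37 nM final, on human A2a receptor membranes from transfected HEK-293 cells. Incubation lasted one hour at room temperature in Tris/MgCl2/EDTA buffer, pH 7.4; filter-bound radioactivity was counted by scintillation.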", "units": {"IC50": "nM"}, "values": [
      {"smiles": "Cc1ccc(-c2nc3nc(N4CCC[C@H]4C(=O)N4CCN(CC(F)(F)C(F)F)CC4)nc(N)n3n2)o1", "note": "[Example 298, (S)-(1-(7-amino-2-(5-methylfuran-2-yl)-[1,2,4]triazolo[1,5-a][1,3,5]triazin-5-yl)pyrrolidin-2-yl)(4-(2,2,3,3-tetrafluoropropyl)piperazin-1-yl) methanone]", "IC50": 3},
      {"smiles": "Cc1ccc(-c2nc3nc(N4CCC[C@H]4C(=O)N4CCN(CC(F)(F)C(F)(F)F)CC4)nc(N)n3n2)o1", "note": "[Example 299, (S)-(1-(7-amino-2-(5-methylfuran-2-yl)-[1,2,4]triazolo[1,5-a][1,3,5]triazin-5-yl)pyrrolidin-2-yl)(4-(2,2,3,3,3-pentafluoropropyl)piperazin-1-yl)methanone]", "IC50": 9},
      {"smiles": "Cc1ccc(-c2nc3nc(N4CCC[C@H]4C(=O)N4CCN(CCCC(F)(F)F)CC4)nc(N)n3n2)o1", "note": "[Example 300, (S)-(1-(7-amino-2-(5-methylfuran-2-yl)-[1,2,4]triazolo[1,5-a][1,3,5]triazin-5-yl)pyrrolidin-2-yl)(4-(4,4,4-trifluorobutyl)piperazin-1-yl)methanone]", "IC50": 9},
      {"smiles": "CCCCCCN1CCN(C(=O)[C@@H]2CCCN2c2nc(N)n3nc(-c4ccco4)nc3n2)CC1", "note": "[Example 301, (S)-(1-(7-amino-2-(furan-2-yl)-[1,2,4]triazolo[1,5-a][1,3,5]triazin-5-yl)pyrrolidin-2-yl)(4-hexylpiperazin-1-yl)methanone]", "IC50": 3},
      {"smiles": "CC(C)(O)CN1CCN(C(=O)[C@@H]2CCCN2c2nc(N)n3nc(-c4ccco4)nc3n2)CC1", "note": "[Example 302, (S)-(1-(7-amino-2-(furan-2-yl)-[1,2,4]triazolo[1,5-a][1,3,5]triazin-5-yl)pyrrolidin-2-yl)(4-(2-hydroxy-2-methylpropyl)piperazin-1-yl)methanone]", "IC50": 6},
      {"smiles": "COC[C@H](Nc1nc(N)n2nc(-c3ccco3)nc2n1)C(=O)N1CCN(CC(C)(C)F)CC1", "note": "[Example 303, (S)-2-((7-amino-2-(furan-2-yl)-[1,2,4]triazolo[1,5-a][1,3,5]triazin-5-yl)amino)-1-(4-(2-fluoro-2-methylpropyl)piperazin-1-yl)-3-methoxypropan-1-one]", "IC50": 6},
      {"smiles": "COC[C@H](Nc1nc(N)n2nc(-c3ccco3)nc2n1)C(=O)N1CCN(c2ncccn2)CC1", "note": "[Example 304, (S)-2-((7-amino-2-(furan-2-yl)-[1,2,4]triazolo[1,5-a][1,3,5]triazin-5-yl)amino)-3-methoxy-1-(4-(pyrimidin-2-yl)piperazin-1-yl)propan-1-one]", "IC50": 11},
      {"smiles": "COC[C@H](Nc1nc(N)n2nc(-c3ccco3)nc2n1)C(=O)N1CCN(c2nccs2)CC1", "note": "[Example 305, (S)-2-((7-amino-2-(furan-2-yl)-[1,2,4]triazolo[1,5-a][1,3,5]triazin-5-yl)amino)-3-methoxy-1-(4-(thiazol-2-yl)piperazin-1-yl)propan-1-one]", "IC50": 16},
      {"smiles": "COC[C@H](Nc1nc(N)n2nc(-c3ccco3)nc2n1)C(=O)N1CCN(CC(F)(F)F)CC1", "note": "[Example 306, (S)-2-((7-amino-2-(furan-2-yl)-[1,2,4]triazolo[1,5-a][1,3,5]triazin-5-yl)amino)-3-methoxy-1-(4-(2,2,2-trifluoroethyl)piperazin-1-yl)propan-1-one]", "IC50": 30},
      {"smiles": "CCOC[C@H](Nc1nc(N)n2nc(-c3ccco3)nc2n1)C(=O)N1CCN(c2ncccn2)CC1", "note": "[Example 307, (S)-2-((7-amino-2-(furan-2-yl)-[1,2,4]triazolo[1,5-a][1,3,5]triazin-5-yl)amino)-3-ethoxy-1-(4-(pyrimidin-2-yl)piperazin-1-yl)propan-1-one]", "IC50": 7},
      {"smiles": "CCOC[C@H](Nc1nc(N)n2nc(-c3ccco3)nc2n1)C(=O)N1CCN(CC(F)(F)F)CC1", "note": "[Example 308, (S)-2-((7-amino-2-(furan-2-yl)-[1,2,4]triazolo[1,5-a][1,3,5]triazin-5-yl)amino)-3-ethoxy-1-(4-(2,2,2-trifluoroethyl)piperazin-1-yl)propan-1-one]", "IC50": 13},
      {"smiles": "Nc1nc(N2CCC[C@H]2C(=O)N2CCn3nc(C(F)(F)F)nc3C2)nc2nc(-c3ccco3)nn12", "note": "[Example 309]", "IC50": 21},
      {"smiles": "COCCOc1ccc(N2CCN(C(=O)[C@@H]3CCCN3c3nc(N)n4nc(-c5ccco5)nc4n3)CC2)cc1", "note": "[Example 310, (S)-(1-(7-amino-2-(furan-2-yl)-[1,2,4]triazolo[1,5-a][1,3,5]triazin-5-yl)pyrrolidin-2-yl)(4-(4-(2-methoxyethoxy)phenyl)piperazin-1-yl)methanone]", "IC50": 12},
      {"smiles": "Cc1ccc(-c2nc3nc(N4CCC[C@H]4C(=O)N4CCN(CC(C)(F)F)CC4)nc(N)n3n2)o1", "note": "[Example 311, (S)-(1-(7-amino-2-(5-methylfuran-2-yl)-[1,2,4]triazolo[1,5-a][1,3,5]triazin-5-yl)pyrrolidin-2-yl)(4-(2,2-difluoropropyl)piperazin-1-yl)methanone]", "IC50": 2},
      {"smiles": "Cc1ccc(-c2nc3nc(N4CC[C@H]4C(=O)N4CCN(CC(F)(F)C(F)F)CC4)nc(N)n3n2)o1", "note": "[Example 312, (S)-(1-(7-amino-2-(5-methylfuran-2-yl)-[1,2,4]triazolo[1,5-a][1,3,5]triazin-5-yl)azetidin-2-y1)(4-(2,2,3,3-tetrafluoropropyl)piperazin-1-yl)methanone]", "IC50": 2},
      {"smiles": "Cc1ccc(-c2nc3nc(N4CC[C@H]4C(=O)N4CCN(CC(F)(F)C(F)(F)F)CC4)nc(N)n3n2)o1", "note": "[Example 313, (S)-(1-(7-amino-2-(5-methylfuran-2-yl)-[1,2,4]triazolo[1,5-a][1,3,5]triazin-5-yl)azetidin-2-yl)(4-(2,2,3,3,3-pentafluoropropyl)piperazin-1-yl)methanone]", "IC50": 5},
      {"smiles": "Cc1ccc(-c2nc3nc(N4CC[C@H]4C(=O)N4CCN(CC(C)(F)F)CC4)nc(N)n3n2)o1", "note": "[Example 314, (S)-(1-(7-amino-2-(5-methylfuran-2-yl)-[1,2,4]triazolo[1,5-a][1,3,5]triazin-5-yl)azetidin-2-yl)(4-(2,2-difluoropropyl)piperazin-1-yl)methanone]", "IC50": 19},
      {"smiles": "Cc1ccc(-c2nc3nc(N4CC[C@H]4C(=O)N4CCN(C(=O)CC(C)(C)O)CC4)nc(N)n3n2)o1", "note": "[Example 315, (S)-1-(4-(1-(7-amino-2-(5-methylfuran-2-yl)-[1,2,4]triazolo[1,5-a][1,3,5]triazin-5-yl)azetidine-2-carbonyl)piperazin-1-yl)-3-hydroxy-3-methylbutan-1-one]", "IC50": 16},
      {"smiles": "C[C@H](Nc1nc(N)n2nc(-c3ccco3)nc2n1)C(=O)N1CCN(CC(F)F)CC1", "note": "[Example 316, (S)-2-((7-amino-2-(furan-2-yl)-[1,2,4]triazolo[1,5-a][1,3,5]triazin-5-yl)amino)-1-(4-(2,2-difluoroethyl)piperazin-1-yl)propan-1-one]", "IC50": 26},
      {"smiles": "C[C@H](Nc1nc(N)n2nc(-c3ccco3)nc2n1)C(=O)N1CCN(CC(C)(F)F)CC1", "note": "[Example 317, (S)-2-((7-amino-2-(furan-2-yl)-[1,2,4]triazolo[1,5-a][1,3,5]triazin-5-yl)amino)-1-(4-(2,2-difluoropropyl)piperazin-1-yl)propan-1-one]", "IC50": 13},
      {"smiles": "C[C@H](Nc1nc(N)n2nc(-c3ccco3)nc2n1)C(=O)N1CCN(CC(F)(F)C(F)F)CC1", "note": "[Example 318, (S)-2-((7-amino-2-(furan-2-yl)-[1,2,4]triazolo[1,5-a][1,3,5]triazin-5-yl)amino)-1-(4-(2,2,3,3-tetrafluoropropyl)piperazin-1-yl)propan-1-one]", "IC50": 19},
      {"smiles": "C[C@H](Nc1nc(N)n2nc(-c3ccco3)nc2n1)C(=O)N1CCN(CC(F)(F)C(F)(F)F)CC1", "note": "[Example 319, (S)-2-((7-amino-2-(furan-2-yl)-[1,2,4]triazolo[1,5-a][1,3,5]triazin-5-yl)amino)-1-(4-(2,2,3,3,3-pentafluoropropyl)piperazin-1-yl)propan-1-one]", "IC50": 15},
      {"smiles": "C[C@H](Nc1nc(N)n2nc(-c3ccco3)nc2n1)C(=O)N1CCN(CC(F)(F)C(F)(F)C(F)(F)F)CC1", "note": "[Example 320, (S)-2-((7-amino-2-(furan-2-yl)-[1,2,4]triazolo[1,5-a][1,3,5]triazin-5-yl)amino)-1-(4-(2,2,3,3,4,4,4-heptafluorobutyl)piperazin-1-yl)propan-1-one]", "IC50": 2},
      {"smiles": "Cn1cc(N2CCN(C(=O)[C@@H]3CCCN3c3nc(N)n4nc(-c5ccco5)nc4n3)CC2)cn1", "note": "[Example 321, (S)-(1-(7-amino-2-(furan-2-yl)-[1,2,4]triazolo[1,5-a][1,3,5]triazin-5-yl)pyrrolidin-2-yl)(4-(1-methyl-1H-pyrazol-4-yl)piperazin-1-yl)methanone]", "IC50": 2},
      {"smiles": "CC(C)(F)CN1CCC(C2CCN(C(=O)[C@@H]3CCN3c3nc(N)n4nc(-c5ccco5)nc4n3)CC2)CC1", "note": "[Example 322, (S)-(1-(7-amino-2-(furan-2-yl)-[1,2,4]triazolo[1,5-a][1,3,5]triazin-5-yl)azetidin-2-yl)(1′-(2-fluoro-2-methylpropyl)-[4,4′-bipiperidin]-1-yl) methanone]", "IC50": 6},
      {"smiles": "Nc1nc(N2CC[C@H]2C(=O)N2CCC(C3CCN(CC(F)F)CC3)CC2)nc2nc(-c3ccco3)nn12", "note": "[Example 323, (S)-(1-(7-amino-2-(furan-2-yl)-[1,2,4]triazolo[1,5-a][1,3,5]triazin-5-yl)azetidin-2-yl)(1′-(2,2-difluoroethyl)-[4,4′-bipiperidin]-1-yl)methanone]", "IC50": 3},
      {"smiles": "CC(F)(F)CN1CCC(C2CCN(C(=O)[C@@H]3CCN3c3nc(N)n4nc(-c5ccco5)nc4n3)CC2)CC1", "note": "[Example 324, (S)-(1-(7-amino-2-(furan-2-yl)-[1,2,4]triazolo[1,5-a][1,3,5]triazin-5-yl)azetidin-2-yl)(1′-(2,2-difluoropropyl)-[4,4′-bipiperidin]-1-yl)methanone]", "IC50": 5},
      {"smiles": "Nc1nc(N2CC[C@H]2C(=O)N2CCC(C3CCN(CC(F)(F)C(F)F)CC3)CC2)nc2nc(-c3ccco3)nn12", "note": "[Example 325, (S)-(1-(7-amino-2-(furan-2-yl)-[1,2,4]triazolo[1,5-a][1,3,5]triazin-5-yl)azetidin-2-yl)(1′-(2,2,3,3-tetrafluoropropyl)-[4,4′-bipiperidin]-1-yl)methanone]", "IC50": 8}
    ]}
  ]
}
